In ChEMBL document CHEMBL1201862, “PubChem BioAssay data set” (2004) one finds EC50 and AC50 data, which are given here for 45 compounds.

Molecules are shown by their SMILES. Activity calls are given as the source filed them.

Usually EC50 stands for the midpoint of the concentration-response curve. For orientation: AC50 means the midpoint of the concentration-response curve, whichever way the signal moves.

For experiment [1], the system named is Streptococcus sp. 'group A'. Nature of the experiment: growth inhibition of control SK(-) GAS strain, dose response, counter-screen for streptokinase expression inhibitor project, luminescence, kanamycin, BacTiterGlo, confirmation (AID 1900). Type of experiment: functional, organism-based.
For experiment [2], the target named is T1, Streptokinase A (Streptococcus pyogenes serotype M1, UniProt P10520).
T1 sequence (P10520 whole entry): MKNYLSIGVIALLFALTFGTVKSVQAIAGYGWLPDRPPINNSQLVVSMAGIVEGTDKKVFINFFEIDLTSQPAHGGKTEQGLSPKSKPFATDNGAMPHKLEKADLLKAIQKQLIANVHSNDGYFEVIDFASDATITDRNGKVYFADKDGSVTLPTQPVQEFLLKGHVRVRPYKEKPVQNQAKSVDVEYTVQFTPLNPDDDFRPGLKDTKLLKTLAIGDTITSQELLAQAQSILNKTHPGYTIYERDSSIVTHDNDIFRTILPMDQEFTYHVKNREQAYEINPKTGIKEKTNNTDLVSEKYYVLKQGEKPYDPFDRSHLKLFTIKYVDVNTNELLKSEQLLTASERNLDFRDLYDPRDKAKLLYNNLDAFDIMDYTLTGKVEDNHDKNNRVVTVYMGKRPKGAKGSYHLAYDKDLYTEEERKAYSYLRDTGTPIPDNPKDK
Nature of the experiment: S. pyogenes streptokinase expression inhibitors, potency, dose response, plasminogen activation absorbance, OD405 (AID 1914).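 Further: secreted streptokinase activity via plasminogen activation per viability signal from cell pellet.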 Type of experiment: functional, Streptococcus pyogenes M1 GAS.

The subject of experiment [3] is Streptococcus. Nature of the experiment: Group A Streptococcus viability loss, dose response, counter-screen for streptokinase expression inhibitor project, luminescence, BacTiterGlo (AID 1915).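 Further: potency for reduction of bacterial viability or growth.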 Type of experiment: functional, organism-based. (A counterscreen serves to expose hits that act by an unwanted route or on another target.)
Experiment [4] in a line: cytotoxicity toward NIH3T3 fibroblasts, dose response, counter-screen, cell-based, ATP luminescence, mouse fibroblasts (AID 2010).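 Further: cells exposed to compound for about 90 hours before reading.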 Type of experiment: functional.
Experiment [5] in a line: inhibitors of intracellular T. cruzi replication, confirmation, NIH3T3 host cells, beta-gal luminescence (AID 2044).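 Further: intracellular parasites grown in NIH/3T3 mouse fibroblasts as host cells; luminescent beta-galactosidase reporter signal from transgenic T. cruzi replicating inside host cells; inhibitors lower the luminescence signal.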 In kind it is functional, cell-based.
Experiment [6] addresses T2, Cytochrome P450 1A2 (Homo sapiens, UniProt P05177).
T2 sequence (P05177 whole entry): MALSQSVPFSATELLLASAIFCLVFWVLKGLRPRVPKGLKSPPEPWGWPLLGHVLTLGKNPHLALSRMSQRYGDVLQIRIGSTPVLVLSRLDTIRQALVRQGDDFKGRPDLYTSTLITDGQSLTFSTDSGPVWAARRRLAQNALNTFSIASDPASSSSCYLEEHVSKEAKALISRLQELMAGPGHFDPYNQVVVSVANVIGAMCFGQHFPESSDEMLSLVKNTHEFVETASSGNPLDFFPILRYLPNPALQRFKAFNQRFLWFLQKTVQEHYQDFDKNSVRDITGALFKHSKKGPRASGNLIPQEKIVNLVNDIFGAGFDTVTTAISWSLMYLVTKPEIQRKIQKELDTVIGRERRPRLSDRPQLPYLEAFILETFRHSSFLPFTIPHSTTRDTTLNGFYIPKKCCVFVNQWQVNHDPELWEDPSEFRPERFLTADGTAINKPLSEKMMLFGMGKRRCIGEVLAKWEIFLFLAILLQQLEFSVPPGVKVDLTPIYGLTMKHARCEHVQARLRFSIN

The target of experiment [7] is Cytochrome P450 2D6 (Homo sapiens, UniProt P10635).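 Further: CYP2D6 member of a cytochrome P450 panel assay.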
Experiment [8] in a line: Luminescence Cell-Based Dose Retest to Confirm Inhibitors of Cancer Stem Cells. [Related pubchem assays (depositor defined):AID2717, AID2721]. Type of experiment: functional. The conditions noted are these: Homo sapiens.
For experiment [9], the target named is Cytochrome P450 2C19 (Homo sapiens, UniProt P33261). Kind of experiment: Cytochrome panel assay with activity outcomes. Panel member name: p450-cyp2c19 Compounds with AC50 equal or less than 10 uM are considered active. In kind it is functional. As to conditions: read-out: AC50.
Experiment [10] concerns the target Cytochrome P450 2C9 (Homo sapiens, UniProt P11712).
Experiment [11] has as its target Cytochrome P450 3A4 (Homo sapiens, UniProt P08684).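 Further: CYP3A4 tested as one member of a cytochrome P450 panel screen.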

Sequence of Cytochrome P450 2D6 (P10635 whole entry): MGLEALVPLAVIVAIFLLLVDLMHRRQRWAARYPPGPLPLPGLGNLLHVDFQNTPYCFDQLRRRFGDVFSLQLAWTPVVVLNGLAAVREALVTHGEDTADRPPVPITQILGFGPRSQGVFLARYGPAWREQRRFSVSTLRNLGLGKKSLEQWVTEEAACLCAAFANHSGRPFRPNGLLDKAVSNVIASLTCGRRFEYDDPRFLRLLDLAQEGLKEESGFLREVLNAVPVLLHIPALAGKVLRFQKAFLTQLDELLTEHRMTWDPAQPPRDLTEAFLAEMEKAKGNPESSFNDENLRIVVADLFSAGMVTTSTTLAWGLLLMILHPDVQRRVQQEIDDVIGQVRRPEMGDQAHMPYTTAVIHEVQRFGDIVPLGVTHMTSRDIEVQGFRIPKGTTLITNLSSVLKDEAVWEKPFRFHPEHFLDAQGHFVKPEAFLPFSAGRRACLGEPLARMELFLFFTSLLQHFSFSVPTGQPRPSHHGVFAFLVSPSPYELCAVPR
Sequence of Cytochrome P450 2C19 (P33261 whole entry): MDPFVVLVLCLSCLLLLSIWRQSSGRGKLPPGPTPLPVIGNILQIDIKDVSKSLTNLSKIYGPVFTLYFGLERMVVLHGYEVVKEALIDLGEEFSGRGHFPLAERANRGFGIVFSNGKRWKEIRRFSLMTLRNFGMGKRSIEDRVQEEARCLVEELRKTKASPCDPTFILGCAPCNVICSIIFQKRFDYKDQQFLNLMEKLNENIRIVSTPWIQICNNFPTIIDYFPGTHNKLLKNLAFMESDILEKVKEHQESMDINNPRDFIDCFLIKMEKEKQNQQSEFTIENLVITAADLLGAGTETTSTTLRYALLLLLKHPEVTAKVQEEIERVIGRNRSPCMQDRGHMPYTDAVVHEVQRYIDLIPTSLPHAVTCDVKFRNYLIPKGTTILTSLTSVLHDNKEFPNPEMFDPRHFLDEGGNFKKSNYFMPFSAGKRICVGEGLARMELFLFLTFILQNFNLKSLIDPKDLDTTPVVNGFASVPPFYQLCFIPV
Sequence of Cytochrome P450 3A4 (P08684 whole entry): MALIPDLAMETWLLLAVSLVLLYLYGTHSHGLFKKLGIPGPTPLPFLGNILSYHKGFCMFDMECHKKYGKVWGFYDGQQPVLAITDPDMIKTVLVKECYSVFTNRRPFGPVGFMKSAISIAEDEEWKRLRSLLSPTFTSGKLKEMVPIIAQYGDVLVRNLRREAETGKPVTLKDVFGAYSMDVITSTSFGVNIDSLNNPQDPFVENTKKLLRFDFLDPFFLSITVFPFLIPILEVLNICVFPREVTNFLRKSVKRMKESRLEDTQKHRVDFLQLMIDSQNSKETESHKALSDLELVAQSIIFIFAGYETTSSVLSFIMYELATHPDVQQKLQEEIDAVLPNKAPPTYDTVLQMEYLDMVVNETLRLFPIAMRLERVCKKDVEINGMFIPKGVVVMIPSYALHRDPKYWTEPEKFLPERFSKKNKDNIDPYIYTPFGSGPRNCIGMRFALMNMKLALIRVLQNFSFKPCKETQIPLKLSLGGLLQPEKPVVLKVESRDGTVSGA
Sequence of Cytochrome P450 2C9 (P11712 whole entry): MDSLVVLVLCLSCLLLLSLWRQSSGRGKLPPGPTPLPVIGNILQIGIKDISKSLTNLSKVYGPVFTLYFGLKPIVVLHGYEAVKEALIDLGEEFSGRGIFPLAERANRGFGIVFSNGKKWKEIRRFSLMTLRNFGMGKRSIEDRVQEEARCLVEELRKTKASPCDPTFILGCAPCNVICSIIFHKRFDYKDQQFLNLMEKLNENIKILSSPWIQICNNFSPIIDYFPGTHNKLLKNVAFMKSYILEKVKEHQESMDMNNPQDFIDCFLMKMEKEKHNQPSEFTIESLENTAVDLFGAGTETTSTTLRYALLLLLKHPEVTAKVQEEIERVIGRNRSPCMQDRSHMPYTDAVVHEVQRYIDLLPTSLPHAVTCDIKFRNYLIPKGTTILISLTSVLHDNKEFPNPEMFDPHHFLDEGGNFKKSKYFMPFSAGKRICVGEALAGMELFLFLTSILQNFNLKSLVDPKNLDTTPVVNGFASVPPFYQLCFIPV

In the case of `Cc1ccccc1C(=O)N=c1nc(S)ss1`, the EC50 in [1] is 2.81 µM (active); in experiment [2], 2.04 µM (active); in experiment [3] it was 36.5 µM (active).

For `CCN(CC)CCN(C(=O)CCOc1ccccc1)c1nc2c(F)cc(F)cc2s1`, the concentration for a half-maximal effect (EC50) is > 60 µM (inconclusive) in experiment [4] and 1.02 µM (active) in [5].

For the compound `CCCN(CCC)CCCNC(=O)c1ccc2c(c1)N(CC)C(=O)c1ccccc1[S+]2[O-]` (stereo not drawn), the AC50 in experiment [6] was 0.01 µM (inconclusive); in experiment [7], 22.4 µM (inconclusive).

Turning to `C=CCOc1c(Cl)cc(CNCCCN2CCOCC2)cc1OC`, the EC50 in experiment [4] was 20.2 µM (active); in experiment [5], 0.125 µM (active).

For the compound `N#Cc1c(NC(=O)Cn2c(=O)oc3ccccc32)oc(-c2ccccc2)c1-c1ccccc1`, the AC50 in [8] was 1.97 µM (active).

For the compound `O=C(O)/C=C\C=C/c1ccc2c(c1)OCO2`, in experiment [6], the AC50 was 1.58 µM (inconclusive).

Regarding `O=C(Nc1cccc(F)c1)N1CC[C@@]2(CCCN(S(=O)(=O)c3ccccc3)C2)C1`, the AC50 in experiment [6] was 15.8 µM (inconclusive); in experiment [7], 39.8 µM (inconclusive).

With `CCSc1nnc(C(N)Cc2ccccc2)o1` (stereo not drawn), the figures for the AC50 in [9], in experiment [10] and in [7] were 28.2 µM (inconclusive), 2.24 µM (inconclusive) and 17.8 µM (inconclusive), respectively.

In the case of `c1ccc(COc2cccc(CNCc3cccnc3)c2)cc1`, the EC50 in experiment [4] is > 30 µM (not active); in experiment [5] it was 8.34 µM (active).

As to `CCCN1CC[C@@H]2c3cc(O)ccc3CC[C@H]21`, the AC50 in experiment [7] is 31.6 µM (inconclusive).

Consider `Cc1nnc(NC(=O)c2ccc(S(=O)(=O)N3CC(C)CC(C)C3)cc2)o1` (stereo not drawn), for which the EC50 in [1] is 7.28 µM (active); in experiment [2], > 150 µM (not active); in [3], 21 µM (active).

As for `COc1cccc(C(=O)Nc2nnc(-c3cccs3)o2)c1`, the figures for the EC50 in experiment [1], in [2] and in experiment [3] were 9.25 µM (active), > 150 µM (not active) and 18.9 µM (active), respectively.

Regarding `COc1ccc2[nH]c(C(O)(Cc3cccnc3)Cc3cccnc3)cc2c1`, the EC50 in experiment [4] was > 60 µM (inconclusive); in experiment [5], 2.42 µM (active).

Take `Cc1sc2ncnc(SCC(=O)N3CCCC(C(F)(F)F)C3)c2c1C` (stereo not drawn): the EC50 in [1], in experiment [2] and in experiment [3] was > 150 µM (not active) in each case.

In the case of `O=C(CC1NCCc2ccccc21)Nc1ccc(Oc2ccccc2)cc1` (stereo not drawn), the AC50 in [8] is 7.35 µM (active).

With `COc1ccc(NC(=O)N2CCC3(CC2)CCN(S(=O)(=O)c2ccccc2)CC3)cc1`, the AC50 in [6] is 31.6 µM (inconclusive); in [11], 20 µM (inconclusive); in experiment [7] it was 25.1 µM (inconclusive).

As for `CN1CCN(c2ncc3nc(-c4ccccc4)c(=O)n(C)c3n2)CC1`, the AC50 in experiment [6] was 15.8 µM (inconclusive).

Consider `CN(C)CCCOC(=O)c1ccc(Cl)cc1Cl`, for which the figures for the EC50 in [4] and in experiment [5] were > 60 µM (not active) and 2.56 µM (active), respectively.

As to `COc1ccc(/C=C(/C#N)C(=O)Nc2cc(C)ccc2C)cc1C(=O)O`, the AC50 in [7] was 25.1 µM (inconclusive).

With `CCCOc1c(Cl)cc(C(=O)Nc2ccc3c(c2)OCO3)cc1OCC`, the AC50 in experiment [8] was 2.39 µM (active).

As for `Cc1cccc(NCCNc2cccc(C)c2)c1`, the AC50 in [10] was 17.8 µM (inconclusive); in experiment [7] it was 12.6 µM (inconclusive).

Turning to `Oc1c(Cl)cc(CN(Cc2cc(Cl)c(O)c(Cl)c2)C2CCCCC2)cc1Cl`, the AC50 in experiment [10] is 3.98 µM (inconclusive); in experiment [7], 5.01 µM (inconclusive).

`COc1cccc2[nH]c3c(N4CC(C)CC(C)C4)ncnc3c12` (stereo not drawn): the EC50 in [4] is > 60 µM (not active); in [5] it was 1.39 µM (active). Besides, in [11], the AC50 is 0.891 µM (inconclusive).

For the compound `COC(=O)C1=C(C)N=C2SC(C)C(=O)N2C1/C=C/c1ccccc1` (stereo not drawn), in experiment [7], the AC50 was 28.2 µM (inconclusive).

Turning to `Cc1cc(C)c(S(=O)(=O)c2ccc(Cl)cc2C)c(Cl)n1`, the EC50 in experiment [4] is 35.9 µM (active); in experiment [5], 0.336 µM (active).

As for `CSc1cccc(NC(=S)N(Cc2ccccc2)Cc2cccnc2)c1`, the values for the EC50 in experiment [4] and in experiment [5] were > 60 µM (not active) and 0.653 µM (active), respectively.

In the case of `Cc1cc(C(C)(C)C)ccc1OCCCCN1CCCC1`, the AC50 in experiment [8] is 2.57 µM (active).

With `Cc1nn(Cc2ccc(Cl)cc2Cl)c(C)c1NC(=O)c1sc2ccccc2c1Cl`, the half-maximal activity concentration (AC50) was 25.1 µM (inconclusive) in experiment [6], 22.4 µM (inconclusive) in experiment [9] and 1.78 µM (inconclusive) in experiment [10].

For `O=C(NCCN1CCCC1)C1(S(=O)(=O)c2ccc(Cl)cc2)CC1`, the values for the AC50 in experiment [9], in experiment [11] and in [7] were 25.1 µM (inconclusive), 39.8 µM (inconclusive) and 12.6 µM (inconclusive), respectively.

For `COc1cc2c(cc1NC(=O)Nc1ccc(F)cc1)oc1ccccc12`, the EC50 in [4] is > 30 µM (not active); in experiment [5] it was 1.94 µM (active).

On to `COc1ccccc1C1(CC(=O)Nc2nccs2)CCOC(C(C)C)C1` (stereo not drawn), for which the AC50 in [6] was 5.62 µM (inconclusive); in [7] it was 22.4 µM (inconclusive).

As to `COc1ccc2nc(O)c(CN(CCO)C(=O)c3cccs3)cc2c1`, the AC50 in [6] is 20 µM (inconclusive); in experiment [9], 31.6 µM (inconclusive); in experiment [11] it was 15.8 µM (inconclusive).

In the case of `Cc1ccc(O)c(C(=O)c2cc(C#N)c(=O)n(-c3c(C)n(C)n(-c4ccccc4)c3=O)c2)c1`, the AC50 in experiment [7] was 10 µM (inconclusive).

As for `O=C(c1nc2ccc(Cl)cn2c1CN1CCC(CO)CC1)N1CCc2ccccc2C1`, the EC50 in [1], in [2] and in experiment [3] was > 150 µM (not active) throughout.

Turning to `CCCC[N+]1(C)[C@@H]2CC(OC(=O)[C@@H](CO)c3ccccc3)C[C@H]1[C@H]1O[C@H]12` (stereo partly drawn), the AC50 in [7] was 7.94 µM (inconclusive).

Consider `Nc1c(Cl)cc(-c2csc(N3CCCC3c3nc4cc(Cl)c(Cl)cc4n3CCOCCO)n2)cc1Cl` (stereo not drawn), for which the EC50 in experiment [1], in [2] and in experiment [3] was > 150 µM (not active) in each case.

Regarding `O=P(c1ccccc1)(c1ccccc1)N1CC2(CC2)CC(O)(c2ccccc2)C1` (stereo not drawn), the AC50 in experiment [10] is 39.8 µM (inconclusive); in experiment [7], 20 µM (inconclusive).

As to `c1cnc(N2CCC3(CCNCC3)CC2)nc1`, the figures for the AC50 in experiment [11] and in experiment [7] were 20 µM (inconclusive) and 10 µM (inconclusive), respectively.

Turning to `C=CCC[C@H](Cc1ccc(F)cc1)C(=O)O[C@H](CNC(=O)[C@@H](CC=C)CC(=O)N(CCO)Cc1ccccc1)c1ccccc1`, the AC50 in experiment [8] is 7.34 µM (active).

In the case of `CCN(CC)C(=O)CSc1nnc(-c2ccncc2)n1N`, the AC50 in experiment [10] is 31.6 µM (inconclusive); in experiment [7] it was 17.8 µM (inconclusive).

Consider `C[C@@H](CN1CCC(Cc2ccccc2)CC1)[C@@H](O)c1ccc(O)cc1`, for which the AC50 in [6] is 39.8 µM (inconclusive).

`O=c1[nH]c2cc(Cl)ccc2c(O)c1-c1cccc(Oc2ccccc2)c1`: the AC50 in [6] is 2.51 µM (inconclusive); in [9], 31.6 µM (inconclusive).

Take `CCN(Cc1ccccc1)c1ccc(/C=N/NC(=S)NC(C)C)cc1`: in experiment [8], the AC50 is 31.1 µM (active).

For `Fc1cc(F)c(C2SCCN2C(=S)Nc2cccc(C(F)(F)F)c2)c(F)c1` (stereo not drawn), the EC50 in experiment [1] is 6.86 µM (active); in experiment [2], 11.1 µM (active); in [3], > 150 µM (not active).

Take `NC(=O)OCC(COC(N)=O)c1ccccc1` [FELBAMATE]: the AC50 in experiment [6] is 39.8 µM (inconclusive).
